# Measurements from the supplement of paper PMC10307832.
# Key:
# Experiment in all cases: relative viability (nuclei count vs DMSO), 5 days (fraction); higher = more cells survive
# [1] = compound: COc1cccc2c1C(=O)c1c(O)c3c(c(O)c1C2=O)C[C@@](O)(C(=O)CO)C[C@@H]3O[C@H]1C[C@H](N)[C@H](O)[C@H](C)O1 [Doxorubicin] + COc1cc2c(Oc3ccc(NC(=O)C4(C(=O)Nc5ccc(F)cc5)CC4)cc3F)ccnc2cc1OCCCN1CCOCC1 [Foretinib] (partner 0.25 µM)
# Outline: (§1)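 Lung cancer cell lines in 1536-well plates were dosed by pin tool the day after seeding, either with one drug alone or with a fixed anchor-drug dose plus five library-drug doses (not always all listed) in √10 steps. After 5 days, cells were fixed and their nuclei stained in one step (final 0.05% Triton X-100, 1% formaldehyde, 1 ug/ml Hoechst), then counted on 4× images. Relative viability is the nuclei count in treated wells divided by that in vehicle wells. Values are medians of duplicate plates.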
# [2] = compound: COC1=C(C=C(C=C1)C2=CC3=NC=CN3C(=N2)NC4=C(C=CC=N4)C(=O)N)OC [BAY61-3606] + Cc1nc(Nc2ncc(C(=O)Nc3c(C)cccc3Cl)s2)cc(N2CCN(CCO)CC2)n1 [Dasatinib] (partner 0.075 µM)
# Outline: as §1
# [3] = compound: COc1cccc2c1C(=O)c1c(O)c3c(c(O)c1C2=O)C[C@@](O)(C(=O)CO)C[C@@H]3O[C@H]1C[C@H](N)[C@H](O)[C@H](C)O1 [Doxorubicin] + CC(=O)Nc1cccc(-n2c(=O)n(C3CC3)c(=O)c3c(Nc4ccc(I)cc4F)n(C)c(=O)c(C)c32)c1 [Trametinib] (partner 0.02 µM)
# Outline: as §1
# [4] = compound: COC1=C(C=C(C=C1)C2=CC3=NC=CN3C(=N2)NC4=C(C=CC=N4)C(=O)N)OC [BAY61-3606] + CC(C)C[C@H](NC(=O)[C@H](Cc1ccccc1)NC(=O)c1cnccn1)B(O)O [Bortezomib] (partner 0.002 µM)
# Outline: as §1
Cell Line,relative viability ([1]; first compound 0.001 µM),relative viability ([1]; first compound 0.003162 µM),relative viability ([1]; first compound 0.01 µM),relative viability ([1]; first compound 0.03162 µM),relative viability ([1]; first compound 0.1 µM),relative viability ([2]; first compound 0.02 µM),relative viability ([2]; first compound 0.06325 µM),relative viability ([2]; first compound 0.2 µM),relative viability ([2]; first compound 0.6325 µM),relative viability ([2]; first compound 2 µM),relative viability ([3]; first compound 0.001 µM),relative viability ([3]; first compound 0.01 µM),relative viability ([3]; first compound 0.03162 µM),relative viability ([3]; first compound 0.1 µM),relative viability ([4]; first compound 0.02 µM),relative viability ([4]; first compound 0.06325 µM),relative viability ([4]; first compound 0.2 µM),relative viability ([4]; first compound 0.6325 µM),relative viability ([4]; first compound 2 µM),relative viability ([3]; first compound 0.003162 µM)
NCI-H1993,0.876,0.851,0.769,0.673,0.839,0.581,0.56,0.566,0.521,0.491,0.667,0.501,0.473,0.513,1.08,1.02,0.976,1.12,0.848,
CAL-12T,1.03,1.07,1.04,0.568,0.35,0.495,0.383,0.404,0.479,0.131,0.381,0.33,0.225,0.125,1.2,0.939,0.862,0.78,0.799,0.352
NCI-H1623,0.766,0.815,0.895,0.798,0.78,0.556,0.557,0.533,0.522,0.501,,,,,,,,,,
HCC-78,0.577,0.627,0.528,0.517,0.499,0.363,0.362,0.379,0.48,0.694,0.723,0.735,0.668,0.66,0.452,0.535,0.526,0.479,0.427,0.85
EKVX,0.735,0.891,0.912,0.831,0.704,0.602,0.455,0.436,0.58,0.297,0.384,0.368,0.39,0.361,1.12,1.09,1.03,1.16,1.06,0.317
NCI-H1666,0.964,0.872,0.792,0.5,0.468,0.841,0.804,0.813,0.742,0.652,,0.65,0.584,0.517,0.99,,0.836,0.806,0.683,0.796
NCI-H2170,0.994,1.07,0.998,0.96,0.97,0.64,0.508,0.539,0.465,0.352,0.98,0.887,0.756,0.959,,,,,,0.953
NCI-H1734,0.854,0.989,0.934,0.68,0.769,0.582,0.386,0.409,0.331,0.272,0.689,0.641,0.611,0.634,0.878,0.894,0.836,0.883,0.518,0.724
Calu-6,0.945,1.01,0.828,0.619,0.362,,,,,,,,,,1.12,1.15,1.06,1.01,0.831,
EBC-1,0.114,0.1,0.0884,0.0952,0.0885,,,,,,,,,,0.571,0.632,0.616,0.569,0.459,
NCI-H596,0.981,1.04,0.976,0.619,0.964,0.644,0.481,0.618,0.594,0.489,0.733,0.661,0.659,0.671,0.99,1.08,1.17,1.48,1.1,0.896
A-427,0.981,1.13,0.97,1.02,1.05,0.722,0.681,0.673,0.765,0.647,0.782,0.743,0.534,0.418,1.04,0.889,0.994,1.05,0.871,0.708
NCI-H3122,0.959,0.918,0.944,0.942,0.904,0.838,0.882,0.736,0.897,0.691,0.201,0.229,0.185,0.264,0.947,1.02,1.05,0.988,1,0.223
NCI-H1437,1.16,1.26,1.24,1.1,0.621,0.382,0.355,0.391,0.382,0.403,0.564,0.46,0.363,0.26,0.544,0.502,0.433,0.536,0.509,0.609
SK-MES-1,1,0.843,0.923,0.818,0.766,0.379,0.302,0.357,0.339,0.23,0.563,0.513,0.283,0.192,,,,,,0.572
HCC-366,,0.963,0.967,1.01,0.94,0.56,0.548,0.626,0.597,0.439,0.334,0.353,0.227,0.325,1.04,1.16,1.1,0.998,0.964,0.363
NCI-H2347,0.845,0.847,0.708,1.02,0.714,0.328,0.3,0.283,0.332,0.319,0.197,0.284,0.281,0.283,1.09,0.815,0.971,0.869,1.01,0.297
IA-LM,1.04,1.13,1.2,1.1,1.06,,,,,,,,,,0.912,,0.917,0.797,0.68,
HARA,0.791,0.946,0.779,0.816,0.866,0.168,0.233,0.323,0.245,0.28,0.544,0.799,0.471,0.647,1.08,1.14,1.19,1.09,1.1,0.575
SW 1573,0.921,1.19,0.829,0.451,0.503,0.535,0.416,0.43,0.373,0.203,0.463,0.187,0.102,0.067,1.16,1.18,0.971,1.02,0.66,0.589

Cell Line,relative viability ([1]; first compound 0.001 µM),relative viability ([1]; first compound 0.003162 µM),relative viability ([1]; first compound 0.01 µM),relative viability ([1]; first compound 0.03162 µM),relative viability ([1]; first compound 0.1 µM),relative viability ([2]; first compound 0.02 µM),relative viability ([2]; first compound 0.06325 µM),relative viability ([2]; first compound 0.2 µM),relative viability ([2]; first compound 0.6325 µM),relative viability ([2]; first compound 2 µM),relative viability ([3]; first compound 0.001 µM),relative viability ([3]; first compound 0.01 µM),relative viability ([3]; first compound 0.03162 µM),relative viability ([3]; first compound 0.1 µM),relative viability ([4]; first compound 0.02 µM),relative viability ([4]; first compound 0.06325 µM),relative viability ([4]; first compound 0.2 µM),relative viability ([4]; first compound 0.6325 µM),relative viability ([4]; first compound 2 µM),relative viability ([3]; first compound 0.003162 µM)
NCI-H1792,,,,,,0.858,0.76,0.809,0.83,0.535,0.393,0.456,0.392,0.422,0.967,0.987,0.879,0.943,0.976,0.556
HCC-827,1.07,1,1.05,0.984,0.982,0.332,0.328,0.363,0.315,0.24,0.549,0.533,0.509,0.486,1.03,1.07,1.01,1.02,1.1,0.526
LC-2-ad,0.862,0.778,0.714,0.392,0.321,0.569,0.496,0.753,0.622,0.27,0.949,0.924,0.924,0.895,1.02,1.1,0.979,1.08,0.907,0.888
NCI-H520,0.831,0.729,0.619,0.673,0.548,0.191,0.193,0.216,0.184,0.151,0.706,0.616,0.575,0.536,1.1,0.602,0.843,0.84,0.433,0.739
NCI-H460,0.965,1.09,0.843,0.105,0.0481,0.574,0.493,0.533,0.421,0.284,0.138,0.0422,0.0236,0.0041,1.12,1.12,1.05,0.92,0.548,0.0856
NCI-H1944,0.848,0.945,0.908,0.812,0.869,0.216,0.205,0.232,0.21,0.193,0.398,0.385,0.399,0.449,,,,,,0.422
NCI-H1299,1.1,1.11,1.1,1.16,1.05,,,,,,,,,,1.08,1.03,1.02,1.04,0.991,
NCI-H1703,,0.304,0.3,,0.24,,,,,,,,,,0.486,0.321,0.291,0.368,0.234,
NCI-H2342,1.08,1.08,1.06,0.791,1.17,0.297,0.32,0.319,0.311,0.367,0.901,0.954,0.685,0.724,,,,,,0.729
SW 900,0.929,1.06,0.727,0.727,0.958,0.84,0.559,0.706,0.457,0.303,,0.75,0.623,1.03,,,,,,1.01
NCI-H1793,,0.881,0.63,0.531,0.594,0.365,0.357,,0.32,0.427,,0.373,0.4,0.4,,,,,,0.4
NCI-H1563,0.876,0.878,0.728,0.58,0.502,0.477,0.406,0.508,0.421,0.428,,,,,0.84,0.803,0.948,0.988,0.631,
NCI-H1648,,,,,,,,,,,0.474,0.555,0.492,0.541,,,,,,0.429
NCI-H522,,,,,,0.838,0.792,0.975,0.832,0.747,0.706,0.76,0.708,0.777,,,,,,0.79
LK-2,1.2,1.32,0.904,0.826,1.41,0.334,0.217,0.347,0.368,0.379,0.798,0.598,0.578,0.699,,,,,,0.936
HCC-44,,,,,,,,,,,0.987,1.05,1.05,1.07,0.889,0.847,0.845,0.878,0.947,1.11
NCI-H1395,0.949,1.05,0.953,0.892,0.92,0.385,0.404,0.387,0.383,0.399,0.929,0.964,0.971,0.867,,,,,,0.948
A549,0.911,1.1,0.927,0.684,0.29,,,,,,,,,,,,,,,
NCI-H358,0.743,0.737,0.341,0.151,0.122,0.17,0.158,0.149,0.179,0.138,0.164,0.138,0.089,0.0919,,,,,,0.138
ABC-1,1.48,1.13,1.02,0.676,0.339,0.658,0.653,0.557,0.553,0.476,,,,,0.291,0.308,0.35,0.427,0.284,
